Results reported in ChEMBL document CHEMBL1142844, “A chemical strategy to promote helical peptide-protein interactions involved in apoptosis” (Bioorg Med Chem Lett, 2005).

Biological target: Apoptosis regulator Bcl-2 (Homo sapiens, UniProt P10415)
Assay: Inhibition of BCL2 by fluorescence polarization based competitive binding assay; call rule not given here

Apoptosis regulator Bcl-2, sequence (P10415 whole entry): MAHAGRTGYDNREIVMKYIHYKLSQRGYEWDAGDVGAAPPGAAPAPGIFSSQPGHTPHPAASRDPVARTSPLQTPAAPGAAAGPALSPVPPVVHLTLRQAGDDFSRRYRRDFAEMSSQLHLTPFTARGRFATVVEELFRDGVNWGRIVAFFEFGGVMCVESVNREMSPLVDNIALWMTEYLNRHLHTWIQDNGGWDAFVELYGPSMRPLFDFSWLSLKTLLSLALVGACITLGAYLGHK

| Compound | IC50 (read-out: IC50) | IC50 |
| --- | --- | --- |
| CC[C@H](C)[C@H](NC(=O)[C@H](CC(N)=O)NC(=O)[C@H](CCCN=C(N)N)NC(=O)[C@@H](NC(=O)[C@@H](NC(=O)[C@H](CC(=O)O)NC(=O)[C@H](CCC(=O)O)NC(=O)[C@@H](N)CCC(N)=O)[C@@H](C)CC)[C@@H](C)CC)C(=O)N[C@@H](C)C(=O)N[C@@H](CCCN=C(N)N)C(=O)N[C@@H](Cc1c[nH]cn1)C(=O)N[C@@H](CC(C)C)C(=O)N[C@@H](C)C(=O)N[C@@H](CCC(N)=O)C(=O)N[C@H](C(=O)NCC(=O)N[C@@H](CC(=O)O)C(=O)N[C@@H](CO)C(=O)N[C@@H](CCSC)C(=O)N[C@@H](CC(=O)O)C(=O)N[C@@H](CCCN=C(N)N)C(=O)N[C@@H](CO)C(=O)N[C@H](C(=O)N1CCC[C@H]1C(=O)N1CCC[C@H]1C(=O)NCC(=O)O)[C@@H](C)CC)C(C)C | 14100 nM | – |
| H-KKLSECLKRIGDELDS-OH | 29100 nM | – |
| H-NLAAAQRYGRELRRMSDEFEGSFKGL-OH | 410 nM | – |
| H-NLWAAGQVGRQLAIIGDDINRSFKGL-OH | 650 nM | – |
| H-NLWAAKKLSECLKRIGDELDSSFKGL-OH | 1330 nM | – |
| H-NLWAAQRYGRELRRMSDEFEG-OH | 5600 nM | – |
| H-NLWAAQRYGRELRRMSDEFEGAFKGL-OH | 800 nM | – |
| H-NLWAAQRYGRELRRMSDEFEGSAKGL-OH | 1360 nM | – |
| H-NLWAAQRYGRELRRMSDEFEGSFKGL-OH | 300 nM | – |
| H-NLWAARNIARHLAQVGDSMDRSFKGL-OH | 1560 nM | – |
| H-NRWAAQRYGRELRRMSDEFEGSFKGL-OH | 490 nM | – |
| H-PSSTMGQVGRQLAIIGDDINRRYDSE-OH | 3030 nM | – |
| H-QDASTKKLSECLKRIGDELDSNMELQ-OH | 2880 nM | – |
| H-QRYGRELRRMSDEFEG-OH | – | Not Active |
| H-QRYGRELRRMSDEFEGSFKGL-OH | 17500 nM | – |
| H-RNIARHLAQVGDSMDR-OH | 22300 nM | – |
